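All cell lines were grown in 96-well plates and treated with compound for 48 hours. The concentration for full growth arrest is given as TGI.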
Key:
Test in all cases: DTP human tumour cell line panel, 48 h
UACC-62 melanoma = system: UACC-62 melanoma
SR leukemia = system: SR leukemia
CCRF-CEM leukemia = system: CCRF-CEM leukemia
OVCAR-8 ovarian = system: OVCAR-8 ovarian
HOP-62 NSCLC = system: HOP-62 NSCLC
MCF7 breast = system: MCF7 breast
MOLT-4 leukemia = system: MOLT-4 leukemia
SK-OV-3 ovarian = system: SK-OV-3 ovarian
OVCAR-5 ovarian = system: OVCAR-5 ovarian
HOP-92 NSCLC = system: HOP-92 NSCLC
HCC-2998 colon = system: HCC-2998 colon
T-47D breast = system: T-47D breast
IGROV1 ovarian = system: IGROV1 ovarian
OVCAR-3 ovarian = system: OVCAR-3 ovarian
NCI-H226 lung = system: NCI-H226 lung
HCT-15 colon = system: HCT-15 colon
SNB-19 CNS = system: SNB-19 CNS
SNB-75 CNS = system: SNB-75 CNS
SK-MEL-28 melanoma = system: SK-MEL-28 melanoma
M14 melanoma = system: M14 melanoma
EKVX NSCLC = system: EKVX NSCLC
A549 NSCLC = system: A549 NSCLC
A498 renal = system: A498 renal
SW-620 colon = system: SW-620 colon
SF-539 CNS = system: SF-539 CNS
MDA-N = system: MDA-N
MDA-MB-435 = system: MDA-MB-435
MALME-3M melanoma = system: MALME-3M melanoma
PC-3 prostate = system: PC-3 prostate
RXF 393 renal = system: RXF 393 renal
SN12C renal = system: SN12C renal
UO-31 renal = system: UO-31 renal
CAKI-1 renal = system: CAKI-1 renal
OVCAR-4 ovarian = system: OVCAR-4 ovarian
COLO 205 colon = system: COLO 205 colon
NCI/ADR-RES ovarian = system: NCI/ADR-RES ovarian
SK-MEL-2 melanoma = system: SK-MEL-2 melanoma
HT29 colon = system: HT29 colon
LOX IMVI melanoma = system: LOX IMVI melanoma
NCI-H460 lung = system: NCI-H460 lung
SF-268 CNS = system: SF-268 CNS
TK-10 renal = system: TK-10 renal
U251 CNS = system: U251 CNS
MDA-MB-231 breast = system: MDA-MB-231 breast
K-562 leukemia = system: K-562 leukemia
BT-549 breast = system: BT-549 breast
HL-60(TB) leukemia = system: HL-60(TB) leukemia
SF-295 CNS = system: SF-295 CNS
DU-145 prostate = system: DU-145 prostate
HCT-116 colon = system: HCT-116 colon
UACC-257 melanoma = system: UACC-257 melanoma
SK-MEL-5 melanoma = system: SK-MEL-5 melanoma
NCI-H23 lung = system: NCI-H23 lung
HS 578T breast = system: HS 578T breast
KM12 colon = system: KM12 colon
786-0 renal = system: 786-0 renal
RPMI-8226 leukemia = system: RPMI-8226 leukemia

O=C1CC(=O)c2c(O)cc(O)c(c2O)-c2c(ccc(O)c2O)C2=CC(=O)c3c(O)cc(O)c(c3O2)-c2c1ccc(O)c2O (tested in a mixture with another compound) was tested, and the TGI (UACC-62 melanoma) was > 50 µM, the TGI (SR leukemia) was > 50 µM and the TGI (CCRF-CEM leukemia) was > 50 µM. The TGI (OVCAR-8 ovarian) was > 50 µM, the TGI (HOP-62 NSCLC) was > 50 µM and the TGI (MCF7 breast) was > 50 µM. The TGI (MOLT-4 leukemia) was > 50 µM, the TGI (SK-OV-3 ovarian) was > 50 µM and the TGI (OVCAR-5 ovarian) was > 50 µM. For the same molecule, the TGI (HOP-92 NSCLC) was > 50 µM, the TGI (HCC-2998 colon) was > 50 µM and the TGI (T-47D breast) was > 50 µM. For the same molecule, the TGI (IGROV1 ovarian) was > 50 µM, the TGI (OVCAR-3 ovarian) was > 50 µM and the TGI (NCI-H226 lung) was > 50 µM. For the same molecule, the TGI (HCT-15 colon) was > 50 µM, the TGI (SNB-19 CNS) was > 50 µM and the TGI (SNB-75 CNS) was > 50 µM. For the same molecule, the TGI (SK-MEL-28 melanoma) was > 50 µM, the TGI (M14 melanoma) was > 50 µM and the TGI (EKVX NSCLC) was > 50 µM. The TGI (A549 NSCLC) was > 50 µM, the TGI (A498 renal) was > 50 µM and the TGI (SW-620 colon) was > 50 µM. The TGI (SF-539 CNS) was > 50 µM, the TGI (MDA-N) was > 50 µM and the TGI (MDA-MB-435) was > 50 µM. For the same molecule, the TGI (MALME-3M melanoma) was > 50 µM, the TGI (PC-3 prostate) was > 50 µM and the TGI (RXF 393 renal) was > 50 µM. The TGI (SN12C renal) was > 50 µM, the TGI (UO-31 renal) was > 50 µM and the TGI (CAKI-1 renal) was > 50 µM. The TGI (OVCAR-4 ovarian) was > 50 µM, the TGI (COLO 205 colon) was > 50 µM and the TGI (NCI/ADR-RES ovarian) was > 50 µM. The TGI (SK-MEL-2 melanoma) was > 50 µM, the TGI (HT29 colon) was > 50 µM and the TGI (LOX IMVI melanoma) was > 50 µM. The TGI (NCI-H460 lung) was > 50 µM, the TGI (SF-268 CNS) was > 50 µM and the TGI (TK-10 renal) was > 50 µM. The TGI (U251 CNS) was > 50 µM, the TGI (MDA-MB-231 breast) was > 50 µM and the TGI (K-562 leukemia) was > 50 µM. For the same molecule, the TGI (BT-549 breast) was > 50 µM, the TGI (HL-60(TB) leukemia) was > 50 µM and the TGI (SF-295 CNS) was > 50 µM. For the same molecule, the TGI (DU-145 prostate) was > 50 µM, the TGI (HCT-116 colon) was > 50 µM and the TGI (UACC-257 melanoma) was > 50 µM. The TGI (SK-MEL-5 melanoma) was > 50 µM, the TGI (NCI-H23 lung) was > 50 µM and the TGI (HS 578T breast) was > 50 µM.

Molecule CCOC(=O)Nc1c(C#N)[n+]([O-])c2cc(Cl)c(Cl)cc2[n+]1[O-] has a TGI (UACC-62 melanoma) of 31.1 µM, a TGI (SR leukemia) of 24.3 µM and a TGI (CCRF-CEM leukemia) of 22.9 µM. The TGI (OVCAR-8 ovarian) was 37.2 µM, the TGI (HOP-62 NSCLC) was > 100 µM and the TGI (MCF7 breast) was 41.3 µM. The TGI (KM12 colon) was 64.8 µM, the TGI (MOLT-4 leukemia) was 28.7 µM and the TGI (SK-OV-3 ovarian) was 66 µM. The TGI (HOP-92 NSCLC) was 23 µM, the TGI (T-47D breast) was 54.2 µM and the TGI (IGROV1 ovarian) was 28.6 µM. It also gave a TGI (OVCAR-3 ovarian) of 42.6 µM, a TGI (NCI-H226 lung) of 42.9 µM and a TGI (HCT-15 colon) of 25.8 µM. The TGI (SNB-19 CNS) was 65.9 µM, the TGI (SNB-75 CNS) was 41.8 µM and the TGI (SK-MEL-28 melanoma) was 30.7 µM. It also gave a TGI (M14 melanoma) of 38.9 µM, a TGI (A549 NSCLC) of 69.8 µM and a TGI (A498 renal) of 25 µM. It also gave a TGI (SW-620 colon) of 56.5 µM, a TGI (SF-539 CNS) of 30.9 µM and a TGI (MDA-N) of 43 µM. It also gave a TGI (MDA-MB-435) of 36.6 µM, a TGI (MALME-3M melanoma) of 37.6 µM and a TGI (PC-3 prostate) of 31.8 µM. The TGI (RXF 393 renal) was 33 µM, the TGI (786-0 renal) was 41.7 µM and the TGI (SN12C renal) was 32 µM. It also gave a TGI (UO-31 renal) of 31.4 µM, a TGI (CAKI-1 renal) of 40.4 µM and a TGI (OVCAR-4 ovarian) of 29.4 µM. For the same molecule, the TGI (COLO 205 colon) was 30.3 µM, the TGI (NCI/ADR-RES ovarian) was 52.2 µM and the TGI (SK-MEL-2 melanoma) was 48 µM. The TGI (HT29 colon) was 37.3 µM, the TGI (LOX IMVI melanoma) was 27.9 µM and the TGI (NCI-H460 lung) was 34.5 µM. For the same molecule, the TGI (SF-268 CNS) was 34.3 µM, the TGI (TK-10 renal) was > 100 µM and the TGI (U251 CNS) was 32.6 µM. It also gave a TGI (MDA-MB-231 breast) of 35.8 µM, a TGI (K-562 leukemia) of 39.9 µM and a TGI (BT-549 breast) of 36.3 µM. For the same molecule, the TGI (SF-295 CNS) was 34 µM, the TGI (DU-145 prostate) was > 100 µM and the TGI (HCT-116 colon) was 59.3 µM. The TGI (UACC-257 melanoma) was 36.1 µM, the TGI (RPMI-8226 leukemia) was 16.7 µM and the TGI (SK-MEL-5 melanoma) was 24.9 µM. For the same molecule, the TGI (NCI-H23 lung) was 53.9 µM and the TGI (HS 578T breast) was > 100 µM.
